Series [1] in a line: Dissociation constant (pKa4). In kind it is physicochemical. The settings on record: read-out: pKa4.
Series [2] is described as follows: Dissociation constant (pKa3). In kind it is physicochemical. The settings on record: read-out: pKa3.

Molecules are shown by their SMILES.

For the compound `O=P(O)(O)Cc1cccc(CP(=O)(O)O)c1`, the pKa in series [1] came out at 7.71; in series [2] it was 7.11.

For the compound `O=P(O)(O)C(F)c1cccc(C(F)P(=O)(O)O)n1` (stereo unspecified), the pKa in series [1] was 5.3; in series [2], 5.18.

In the case of `O=P(O)(O)Cc1cccc(CP(=O)(O)O)n1`, the pKa in series [1] worked out at 8.49; in series [2] it was 6.7.

Turning to `O=P(O)(O)Cc1cccc(C(O)P(=O)(O)O)c1` (stereo unspecified), the pKa in series [1] was found to be 7.29; in series [2], 6.98.

In the case of `Cc1cc(C)c(CP(=O)(O)O)cc1CP(=O)(O)O`, the pKa in series [1] is 7.78; in series [2], 7.24.

On to `O=P(O)(O)C(F)(F)c1cccc(C(F)(F)P(=O)(O)O)n1`, for which the pKa in series [1] came to 5.3; in series [2], 5.18.

For `O=P(O)(O)Cc1ccccc1CP(=O)(O)O`, the pKa in series [1] was 8.53; in series [2], 7.1.

As for `O=P(O)(O)Cc1cccc(P(=O)(O)O)c1`, the pKa in series [1] amounted to 7.61; in series [2], 6.47.

For the compound `Cc1cc(C)c(CP(=O)(O)O)c(C)c1CP(=O)(O)O`, the pKa in series [1] is 8.16; in series [2] it was 7.4.

As to `O=P(O)(O)C(F)c1ccc(C(F)P(=O)(O)O)cc1` (stereo unspecified), the pKa in series [1] was 6.37; in series [2] it was 6.02.

Regarding `O=P(O)(O)c1cccc(C(F)P(=O)(O)O)c1` (stereo unspecified), the pKa in series [1] is 6.99; in series [2], 5.8.

Consider `O=P(O)(O)c1cccc(C(O)P(=O)(O)O)c1` (stereo unspecified), for which the pKa in series [1] turned out to be 7.46; in series [2] it was 6.55.

With `Cc1cc(C)c(C(F)(F)P(=O)(O)O)cc1C(F)(F)P(=O)(O)O`, the results for the pKa in series [1] and in series [2] were 5.92 and 5.33, respectively.

As to `O=P(O)(O)C(O)c1cccc(C(O)P(=O)(O)O)c1` (stereo unspecified), the figures for the pKa in series [1] and in series [2] were 7.23 and 6.78, respectively.

In the case of `O=P(O)(O)Cc1ccc(C(F)P(=O)(O)O)cc1` (stereo unspecified), the pKa in series [1] was 7.72; in series [2] it was 6.3.

With `O=P(O)(O)Cc1ccc(C(F)(F)P(=O)(O)O)cc1`, the pKa in series [1] worked out at 6.63; in series [2], 5.27.

Take `O=P(O)(O)c1cccc(C(F)(F)P(=O)(O)O)c1`: the pKa is 6.9 in series [1] and 5.61 in series [2].

As for `C=C(CP(=O)(O)O)CP(=O)(O)O`, the pKa was 7.45 in series [1] and 6.45 in series [2].

As to `O=P(O)(O)C(F)c1cccc(C(F)P(=O)(O)O)c1` (stereo unspecified), the values for the pKa in series [1] and in series [2] were 6.37 and 6.01, respectively.

For the compound `O=P(O)(O)C(F)(F)c1ccc(C(F)(F)P(=O)(O)O)cc1`, the pKa in series [1] is 5.6; in series [2], 4.82.

Turning to `O=P(O)(O)C(O)c1cccc(C(O)P(=O)(O)O)n1` (stereo unspecified), the pKa in series [1] turned out to be 7.58; in series [2], 6.57.

For `O=P(O)(O)Cc1ccc(CP(=O)(O)O)cc1`, the pKa in series [1] came out at 7.49; in series [2], 7.03.

On to `O=P(O)(O)Cc1cccc(C(F)(F)P(=O)(O)O)c1`, for which the pKa in series [1] is 5.84; in series [2] it was 5.04.

These data come from ChEMBL document CHEMBL1131405, “Novel bisphosphonate inhibitors of phosphoglycerate kinase” (Bioorg Med Chem Lett, 1998).
